Assays:
[1] = biological target: dihydrodipicolinate reductase (DHPR) (Escherichia coli, UniProt P04036); assay: DHPR kinetic assay, spectrophotometric oxidation of NADPH at 340 nm; type: biochemical; settings: Cibacron Blue at 2.58 μM; read-out: inhibition of DHPR, positive control
Protocol: DHPR was diluted in 10 mM HEPES at a pH of 7.4. DHPS (dihydrodipicolinate synthase) was not diluted and was stored in eppindorf tubes.
The L-ASA (L-aspartate semialdehyde) solution was prepared in the following manner. […] stock solution of ASA was prepared. 100 μl of the ASA stock solution was mixed with 150 μl of concentrated NaHCO3 and 375 μl of H2O. For use in the assay, 28.8 mM L-ASA was equal to 625 μl of the solution. The L-ASA stock solution was kept at a temperature of −20° C. After dilution, the pH of the 28.8 mM solution was checked and maintained between 1 and 2.
(§1) The solution for background detection was a 945 μl solution containing 0.1 HEPES (pH 7.8), 1 mM pyruvate, 6 μM NADPH, 40 μM L-ASA, and 7 μl of 1 mg/ml DHPS at 25° C. in the volumes provided above. The sample solution was then mixed and incubated for 10 minutes. Next, 500 nM solutions of the inhibitors and enough DMSO to provide a final DMSO concentration of 5% of the total assay volume were added. The solution was mixed and incubated for an additional 6 minutes.
In DHPR samples, 5 μl of the diluted DHPR enzyme were added. The sample was mixed for 20 seconds and then the reaction was run for 10 minutes. […] Reading of the samples was continued until 300 seconds. […] The substrate was kept at a level at least 10 times the Km. The final concentration of L-ASA was about 1 mM.

[2] = biological target: T1, lactate dehydrogenase (LDH) (Oryctolagus cuniculus, UniProt P13491); assay: LDH kinetic assay, spectrophotometric oxidation of NADH at 340 nm; type: biochemical, Rabbit; settings: Cibacron Blue at 10.3 μM; read-out: inhibition of LDH, positive control
T1 construct: LDH from Rabbit Muscle; from tissue; host or cells: rabbit muscle
Protocol: Solutions of 100 μl of the inhibitors in DMSO were prepared to provide a final DMSO concentration of 5% of the total assay volume. […] The reaction was then initiated with 10 μl of LDH from Rabbit Muscle (0.5 μ/ml; 1:2000 dilution of 1.0 mg/ml). […] Reading of the samples was continued until 300 seconds. […] The substrate was kept at a level at least 10 times the Km.

[3] = biological target: 1-deoxy-D-xylulose-5-phosphate reductase (DOXPR) (Escherichia coli, UniProt P45568); assay: DOXPR kinetic assay, spectrophotometric oxidation of NADPH at 340 nm; type: biochemical; settings: Cibacron Blue at 10.32 μM; read-out: inhibition of DOXPR, positive control
Chain of 1-deoxy-D-xylulose-5-phosphate reductase (DOXPR) (P45568 whole entry): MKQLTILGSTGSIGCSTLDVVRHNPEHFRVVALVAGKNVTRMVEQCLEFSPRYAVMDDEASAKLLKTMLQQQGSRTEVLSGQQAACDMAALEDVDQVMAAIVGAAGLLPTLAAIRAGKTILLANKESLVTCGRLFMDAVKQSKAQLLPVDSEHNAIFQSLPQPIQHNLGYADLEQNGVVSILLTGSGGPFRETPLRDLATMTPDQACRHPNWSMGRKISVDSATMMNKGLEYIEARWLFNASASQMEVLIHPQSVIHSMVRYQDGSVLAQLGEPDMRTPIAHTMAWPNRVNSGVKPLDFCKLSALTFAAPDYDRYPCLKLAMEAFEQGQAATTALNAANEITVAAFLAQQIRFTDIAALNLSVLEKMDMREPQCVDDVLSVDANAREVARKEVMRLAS
Protocol: DOXPR was diluted in 10 mM HEPES at a pH of 7.4.
Solutions of the inhibitors in DMSO were prepared to provide a final DMSO concentration of 5% of the total assay volume. […] The oxidation reaction was then initiated with 10 μl of DOXP reductoisomerase (10 μg/ml). […] Reading of the samples was continued until 300 seconds. […] The substrate was kept at a level at least 10 times the Km.

E. coli DHPR = E. coli DHPR (Escherichia coli, UniProt P04036); assay: Screening of bi-ligands on DHPR, kinetic oxidation of NADPH (Example 38); type: biochemical; settings: Cibacron Blue at 2.58 μM, read-out: inhibition of DHPR, positive control
Chain of E. coli DHPR (P04036 whole entry): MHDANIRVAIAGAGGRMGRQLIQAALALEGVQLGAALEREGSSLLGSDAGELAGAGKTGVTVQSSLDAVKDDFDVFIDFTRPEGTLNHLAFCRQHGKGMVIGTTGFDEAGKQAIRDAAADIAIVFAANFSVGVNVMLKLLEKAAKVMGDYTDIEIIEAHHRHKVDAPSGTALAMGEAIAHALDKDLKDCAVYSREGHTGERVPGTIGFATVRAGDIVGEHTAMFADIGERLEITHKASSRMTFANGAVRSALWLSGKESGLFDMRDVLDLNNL
Protocol: Bi-ligands were produced by the methods of Examples 14 to 18. The bi-ligands were screened for binding to E. coli DHPR. The bi-ligands were screened using a kinetic protocol that spectrophotometrically evaluates oxidation of NADPH.
Dilution of DHPR was prepared in 10 mM HEPES at a pH of 7.4. DHPS was not diluted and was stored in eppindorf tubes.
The L-ASA solution was prepared in the following manner. […] stock solution of ASA was prepared. 100 μl of the ASA stock was mixed with 150 μl of concentrated NaHCO3 and 375 μl of H2O. For use in the assay, 28.8 mM L-ASA equal 625 μl of the solution. The L-ASA stock solution was kept at a temperature of −20° C. After dilution, the pH of the 28.8 mM solution was checked and maintained between 1 and 2.
as §1
In DHPR samples, 5 μl of the diluted DHPR enzyme were added. […] Reading of the samples was continued until 300 seconds. […]

Chain of dihydrodipicolinate reductase (DHPR) (P04036 whole entry): as above

Nc1c(S(=O)(=O)O)cc(Nc2ccc(Nc3nc(Cl)nc(Nc4ccccc4S(=O)(=O)O)n3)c(S(=O)(=O)O)c2)c2c1C(=O)c1ccccc1C2=O [Cibacron Blue, reference compound]
inhibition at 2.58 µM [1]: 70 to 80%
inhibition at 10.3 µM [2]: 50 to 70%
inhibition at 10.32 µM [3]: 70 to 80%
inhibition at 2.58 µM (E. coli DHPR): 70 to 80%

Source: patent US20050042674A9, “Common ligand mimics: thiazolidinediones and rhodanines” (priority 2002, published 2005)
